Test results as given in publication PMC4532832, “GABA signalling modulates plant growth by directly regulating the activity of plant-specific anion transporters” (Nature Communications, 2015).
Numbering of substitutions follows the chain as printed. Read-outs that look alike come from different tables or passages of the source. One block for each compound: values may come before it.

How the values were obtained:
Format in all cases: cell-based
TaALMT1 [1] = molecular target: T1, TaALMT1 (Triticum aestivum, UniProt Q76LB1); assay: two-electrode voltage clamp, X. laevis oocytes
T1 construct: gene ALMT1; full-length, untagged as told; cRNA from pGEMHE-DEST in Xenopus laevis oocytes; BY2 tobacco line for flux
T1 sequence (Q76LB1 1-459): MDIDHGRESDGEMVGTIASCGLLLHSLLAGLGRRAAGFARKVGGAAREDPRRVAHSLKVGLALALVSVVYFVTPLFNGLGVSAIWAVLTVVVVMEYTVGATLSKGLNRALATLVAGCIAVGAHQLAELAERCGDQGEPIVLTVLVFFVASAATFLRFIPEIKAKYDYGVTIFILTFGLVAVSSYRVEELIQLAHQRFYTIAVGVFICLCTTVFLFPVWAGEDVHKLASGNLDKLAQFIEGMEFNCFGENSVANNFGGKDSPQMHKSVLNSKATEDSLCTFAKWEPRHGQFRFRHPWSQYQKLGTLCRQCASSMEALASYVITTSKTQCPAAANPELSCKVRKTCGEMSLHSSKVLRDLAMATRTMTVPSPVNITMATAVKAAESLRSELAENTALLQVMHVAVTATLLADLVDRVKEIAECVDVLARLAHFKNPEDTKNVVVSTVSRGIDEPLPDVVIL

VvALMT9 [2] = molecular target: T2, VvALMT9 (Vitis vinifera, UniProt F6GTK1); assay: two-electrode voltage clamp, X. laevis oocytes; conditions: read-out: half-maximal effective concentration
T2 construct: gene VIT_17s0000g03850; full-length, untagged as told; cRNA from pGEMHE-DEST in Xenopus laevis oocytes
T2 sequence (F6GTK1 1-588): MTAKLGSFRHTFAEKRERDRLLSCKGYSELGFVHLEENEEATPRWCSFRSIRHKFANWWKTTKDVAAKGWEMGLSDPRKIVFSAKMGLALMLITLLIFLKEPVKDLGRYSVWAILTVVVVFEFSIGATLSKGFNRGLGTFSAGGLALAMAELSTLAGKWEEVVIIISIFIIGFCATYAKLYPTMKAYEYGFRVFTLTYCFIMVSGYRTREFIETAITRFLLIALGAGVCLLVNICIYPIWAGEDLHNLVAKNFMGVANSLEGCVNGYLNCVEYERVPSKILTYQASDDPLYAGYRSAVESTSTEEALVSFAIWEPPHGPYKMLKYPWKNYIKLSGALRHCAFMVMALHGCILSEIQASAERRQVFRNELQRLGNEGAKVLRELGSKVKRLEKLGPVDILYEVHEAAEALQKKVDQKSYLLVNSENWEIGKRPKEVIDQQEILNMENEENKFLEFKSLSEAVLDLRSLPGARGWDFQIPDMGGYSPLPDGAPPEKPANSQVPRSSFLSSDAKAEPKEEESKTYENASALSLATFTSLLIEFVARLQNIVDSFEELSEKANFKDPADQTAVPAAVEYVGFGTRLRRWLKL

VvALMT9 [3] = molecular target: T3, VvALMT9 (Vitis vinifera, UniProt F6GTK1, Y237C); assay: two-electrode voltage clamp, X. laevis oocytes; conditions: read-out: half-maximal effective concentration
T3 construct: gene VIT_17s0000g03850; full-length, untagged as told; cRNA from pGEMHE-DEST in Xenopus laevis oocytes

TaALMT1 [4] = molecular target: T4, TaALMT1 (Triticum aestivum, UniProt Q76LB1, F213C/F215C); assay: two-electrode voltage clamp, X. laevis oocytes; conditions: read-out: half-maximal effective concentration
T4 construct: gene ALMT1; full-length, untagged as told; cRNA from pGEMHE-DEST in Xenopus laevis oocytes; BY2 tobacco line for flux
T4 sequence (Q76LB1 1-459 F213C/F215C): T1 sequence (Q76LB1 1-459) with F213C, F215C

TaALMT1 [5] = molecular target: T5, TaALMT1 (Triticum aestivum, UniProt Q76LB1, F215C); assay: two-electrode voltage clamp, X. laevis oocytes; conditions: 10 mM malate-activated current, 100 μM GABA
T5 construct: gene ALMT1; full-length, untagged as told; cRNA from pGEMHE-DEST in Xenopus laevis oocytes; BY2 tobacco line for flux
T5 sequence (Q76LB1 1-459 F215C): T1 sequence (Q76LB1 1-459) with F215C

TaALMT1 [6] = molecular target: T1, TaALMT1; assay: two-electrode voltage clamp in oocytes; malate efflux from TaALMT1-expressing BY2 cells; conditions: 100 μM bicuculline against muscimol or GABA; competitive antagonist

T3 sequence (F6GTK1 entry or part of it Y237C): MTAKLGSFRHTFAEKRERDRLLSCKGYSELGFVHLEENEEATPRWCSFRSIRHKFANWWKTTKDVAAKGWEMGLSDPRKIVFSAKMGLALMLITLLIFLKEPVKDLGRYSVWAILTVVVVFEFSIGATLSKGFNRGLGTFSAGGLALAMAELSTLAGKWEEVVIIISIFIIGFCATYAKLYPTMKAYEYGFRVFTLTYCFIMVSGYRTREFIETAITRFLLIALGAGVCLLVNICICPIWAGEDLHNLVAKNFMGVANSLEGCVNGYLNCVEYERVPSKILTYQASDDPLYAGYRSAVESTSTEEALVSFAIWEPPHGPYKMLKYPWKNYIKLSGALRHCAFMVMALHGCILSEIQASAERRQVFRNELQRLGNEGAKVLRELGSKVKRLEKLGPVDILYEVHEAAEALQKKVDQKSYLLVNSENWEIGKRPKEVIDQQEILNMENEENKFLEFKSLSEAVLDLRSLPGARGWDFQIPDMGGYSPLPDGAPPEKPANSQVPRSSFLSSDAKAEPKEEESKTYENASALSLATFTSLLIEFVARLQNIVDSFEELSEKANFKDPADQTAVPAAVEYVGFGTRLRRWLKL

- EC50 (TaALMT1 [1]; read-out: half-maximal effective concentration): 3.2 µM
- EC50 (VvALMT9 [2]): 5 µM
- EC50 (VvALMT9 [3]): 697 µM
- EC50 (TaALMT1 [4]): > 1000 µM
Compound: NCCCC(=O)O [GABA]
- inhibition at 100 μM (TaALMT1 [5]): whereas inward current through TaALMT1^F215C was reduced by GABA

Compound: CN1CCc2cc3c(cc2[C@H]1[C@@H]1OC(=O)c2c1ccc1c2OCO1)OCO3 [bicuculline]
- two-electrode voltage clamp in oocytes; malate efflux from TaALMT1-expressing BY (TaALMT1 [6]): bicuculline appears to act as a competitive antagonist to GABA action for TaALMT1

Compound: NCc1cc(=O)[nH]o1 [muscimol]
- EC50 (TaALMT1 [1]): 5.5 µM
